Starred links: 1 amine or outer side, 2 acyl side, 3 side chain; linkers in the order of their positions; H or OH if unused. Positions of bridges follow the written chain, without caps; N, C: chain ends. Non-standard residues stand in square brackets, D forms with d. Residues, ends and D or L forms follow the SMILES beside them. *: point of attachment. X3 = CN(CCCCC(=O)N[C@@H](CS[*:2])C(=O)[*:1])[*:3]; Trp(7-Me) = Cc1cccc2c(C[C@H](N)C(=O)O)c[nH]c12; X1 = O=C(CCCCN[*:3])N[C@@H](CS[*:2])C(=O)[*:1]; αMeLys(Me2) = CN(C)CCCC[C@](C)(N)C(=O)O; X2 = CN(C)[C@@H](CCCCN[*:1])C(=O)[*:2]; 2Nal = N[C@@H](Cc1ccc2ccccc2c1)C(=O)O; AEF = NCCOc1ccc(C[C@H](N)C(=O)O)cc1; 3Pal = N[C@@H](Cc1cccnc1)C(=O)O; αMeL = CC(C)C[C@](C)(N)C(=O)O; Suc = O=C(CCC(=O)[*:2])[*:1]; Thp = NC1(C(=O)O)CCOCC1; Me2NCH2CH2 = CN(C)CC*; Aib = CC(C)(N)C(=O)O; Ahx = NCCCCCC(=O)O; Ava = NCCCCC(=O)O; βAla = NCCC(=O)O; Sar = CNCC(=O)O
Test: Chemical stability assessment of peptides (relative purity loss)
Type: physicochemical
Conditions: 24 hours at 37° C.; for Chemical stability (relative purity loss) Buffer pH 1.2: 50 mM HCl pH 1.2 + acetonitrile (1:1); for Chemical stability (relative purity loss) Buffer pH 6.5: 50 mM phosphate buffer pH 6.5 + acetonitrile (1:1); for Chemical stability (relative purity loss) Buffer pH 7.4: 50 mM phosphate buffer pH 7.4 + acetonitrile (1:1)
Method in brief: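 Peptide solutions at 1 mg/ml (purity-corrected) in 1:1 acetonitrile with 50 mM HCl pH 1.2, or 50 mM phosphate pH 6.5 or pH 7.4, held 24 hours at 2° C. and 37° C. Supernatants analysed by UHPLC-UV; relative purity loss taken as percent drop in peak-area purity from 0 to 24 hours at 37° C.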

SMILES	Chemical stability (relative purity loss) Buffer pH 1.2 [%]	Chemical stability (relative purity loss) Buffer pH 6.5 [%]	Chemical stability (relative purity loss) Buffer pH 7.4 [%]
CC(=O)N[C@H]1CCCCNC(=O)[C@@H]2CSSC[C@H](NC(=O)[C@H](CCC(N)=O)NC(=O)[C@H](Cc3c[nH]c4ccccc34)NC1=O)C(=O)N[C@@H](Cc1ccc(OCCN)cc1)C(=O)N[C@@H](Cc1ccc3ccccc3c1)C(=O)N[C@@](C)(CC(C)C)C(=O)N[C@H](C(=O)N[C@@H](C)C(=O)NCC(N)=O)CCC(=O)N(C)CCCCC(=O)N2 [compound 18] (Ac-KWQC[AEF][2Nal][αMeL]EAG-NH2; linker 1-4-8 via X3)	11.4	0.1	0.0
CC(=O)NCCCC[C@@H]1NC(=O)[C@H](Cc2c[nH]c3ccccc23)NC(=O)[C@@H](N(C)C)CCCCNC(=O)[C@@H]2CSSC[C@H](NC1=O)C(=O)N[C@@H](Cc1ccc(OCCN(C)C)cc1)C(=O)N[C@@H](Cc1ccc3ccccc3c1)C(=O)N[C@@](C)(CCCCN(C)C)C(=O)N[C@H](C(=O)N[C@@H](CC(N)=O)C(=O)N[C@@H](Cc1cccnc1)C(=O)N(C)CC(N)=O)CCC(=O)NCCCCC(=O)N2 [compound 36] ([Ava]C[X2]WK(Ac)CY(Me2NCH2CH2)[2Nal][αMeLys(Me2)]EN[3Pal][Sar]-NH2; disulfide 2-6; lactam N-10)	2.6	1.1	0.9
COc1ccc(C[C@@H]2NC(=O)[C@@H]3CSSC[C@H](NC(=O)CCC(=O)NCCCC[C@@H](C(=O)N[C@@H](CC(N)=O)C(=O)N[C@@H](CC(N)=O)C(N)=O)NC(=O)C(C)(C)NC(=O)[C@H](Cc4ccc5ccccc5c4)NC2=O)C(=O)N[C@@H](CC(N)=O)C(=O)N[C@@H]([C@@H](C)O)C(=O)N[C@@H](Cc2c[nH]c4ccccc24)C(=O)N[C@@H](CCC(N)=O)C(=O)N3)cc1 [compound 11]	25.7	0.2	1.0
C[C@@H](O)[C@@H]1NC(=O)[C@H](CC(N)=O)NC(=O)[C@@H]2CSSC[C@H](NC(=O)[C@H](CCC(N)=O)NC(=O)[C@H](Cc3c[nH]c4ccccc34)NC1=O)C(=O)N[C@@H](Cc1ccc(OCCN)cc1)C(=O)N[C@@H](Cc1ccc3ccccc3c1)C(=O)NC(C)(C)C(=O)N[C@H](C(=O)N[C@@H](CC(N)=O)C(=O)NCC(N)=O)CC(=O)NCCCCCC(=O)N2 [compound 9] ([Ahx]CNTWQC[AEF][2Nal][Aib]DNG-NH2; disulfide 2-7; lactam N-11)	13.8	5.5	19.8
CC(=O)NCCCC[C@@H]1NC(=O)[C@H](Cc2c[nH]c3c(C)cccc23)NC(=O)[C@H]([C@@H](C)O)NC(=O)[C@H](CC(N)=O)NC(=O)[C@@H]2CSSC[C@H](NC1=O)C(=O)N[C@@H](Cc1ccc(OCCN(C)C)cc1)C(=O)N[C@@H](Cc1ccc3ccccc3c1)C(=O)N[C@@](C)(CC(C)C)C(=O)N[C@H](C(=O)N[C@@H](CC(N)=O)C(=O)N[C@@H](Cc1c[nH]cn1)C(=O)NCCC(N)=O)CCC(=O)NCCCCC(=O)N2 [compound 50] ([Ava]CNT[Trp(7-Me)]K(Ac)CY(Me2NCH2CH2)[2Nal][αMeL]ENH[βAla]-NH2; disulfide 2-7; lactam N-11)	13.0	0.7	1.5
Cc1cccc2c(C[C@@H]3NC(=O)[C@H]([C@@H](C)O)NC(=O)[C@H](CC(N)=O)NC(=O)[C@@H]4CSSC[C@H](NC(=O)[C@H](CC(C)C)NC3=O)C(=O)N[C@@H](Cc3ccc(OCCN(C)C)cc3)C(=O)N[C@@H](Cc3ccc5ccccc5c3)C(=O)NC3(CCOCC3)C(=O)N[C@H](C(=O)N[C@@H](CC(N)=O)C(=O)N[C@@H](Cc3cccnc3)C(=O)N(C)CC(N)=O)CCC(=O)NCCCCC(=O)N4)c[nH]c12 [compound 24] ([Ava]CNT[Trp(7-Me)]LCY(Me2NCH2CH2)[2Nal][Thp]EN[3Pal][Sar]-NH2; disulfide 2-7; lactam N-11)	7.2	0.0	0.4
CC(=O)NCCCC[C@@H]1NC(=O)[C@H](Cc2c[nH]c3c(C)cccc23)NC(=O)[C@H]([C@@H](C)O)NC(=O)[C@H](CC(N)=O)NC(=O)[C@@H]2CSSC[C@H](NC1=O)C(=O)N[C@@H](Cc1ccc(OCCN(C)C)cc1)C(=O)N[C@@H](Cc1ccc3ccccc3c1)C(=O)N[C@@](C)(CC(C)C)C(=O)N[C@H](C(=O)N[C@@H](CC(N)=O)C(=O)N[C@@H](Cc1c[nH]cn1)C(N)=O)CCCCNC(=O)CCC(=O)N2 [compound 23] (CNT[Trp(7-Me)]K(Ac)CY(Me2NCH2CH2)[2Nal][αMeL]KNH-NH2; disulfide 1-6; linker N-10 via Suc)	11.3	0.0	0.0
CC(=O)N[C@H]1CCCCNC(=O)[C@@H]2CSSC[C@H](NC(=O)[C@H](CCC(N)=O)NC(=O)[C@H](Cc3c[nH]c4ccccc34)NC1=O)C(=O)N[C@@H](Cc1ccc(OCCN)cc1)C(=O)N[C@@H](Cc1ccc3ccccc3c1)C(=O)NC1(CCOCC1)C(=O)N[C@H](C(=O)N[C@@H](CC(N)=O)C(=O)N[C@@H](CC(N)=O)C(N)=O)CCC(=O)N(C)CCCCC(=O)N2 [compound 13] (Ac-KWQC[AEF][2Nal][Thp]ENN-NH2; linker 1-4-8 via X3)	23.3	0.2	1.6
CC(=O)NCCCC[C@@H]1NC(=O)[C@H](Cc2c[nH]c3c(C)cccc23)NC(=O)[C@H]([C@@H](C)O)NC(=O)[C@H](CC(N)=O)NC(=O)[C@@H]2CSSC[C@H](NC1=O)C(=O)N[C@@H](Cc1ccc(OCCN(C)C)cc1)C(=O)N[C@@H](Cc1ccc3ccccc3c1)C(=O)N[C@@](C)(CC(C)C)C(=O)N[C@H](C(=O)N[C@@H](CC(N)=O)C(=O)N[C@@H](Cc1c[nH]cn1)C(=O)N(C)CC(N)=O)CCC(=O)NCCCCC(=O)N2 [compound 47] ([Ava]CNT[Trp(7-Me)]K(Ac)CY(Me2NCH2CH2)[2Nal][αMeL]ENH[Sar]-NH2; disulfide 2-7; lactam N-11)	2.9	0.6	0.9
CC(=O)N[C@H]1CCCCNC(=O)[C@@H]2CSSC[C@H](NC(=O)[C@H](CCC(N)=O)NC(=O)[C@H](Cc3c[nH]c4ccccc34)NC1=O)C(=O)N[C@@H](Cc1ccc(OCCN(C)C)cc1)C(=O)N[C@@H](Cc1ccc3ccccc3c1)C(=O)NC(C)(C)C(=O)N[C@H](C(=O)N[C@@H](C)C(=O)NCC(N)=O)CCC(=O)NCCCCC(=O)N2 [compound 32] (Ac-KWQCY(Me2NCH2CH2)[2Nal][Aib]EAG-NH2; linker 1-4-8 via X1)	10.5	0.0	1.0
CC(=O)NCCCC[C@@H]1NC(=O)[C@H](Cc2c[nH]c3c(C)cccc23)NC(=O)[C@H]([C@@H](C)O)NC(=O)[C@H](CC(N)=O)NC(=O)[C@@H]2CSSC[C@H](NC1=O)C(=O)N[C@@H](Cc1ccc(OCCN(C)C)cc1)C(=O)N[C@@H](Cc1ccc3ccccc3c1)C(=O)NC1(CCOCC1)C(=O)N[C@H](C(=O)N[C@@H](CC(N)=O)C(=O)N[C@@H](Cc1c[nH]cn1)C(=O)N(C)CC(N)=O)CCC(=O)NCCCCC(=O)N2 [compound 46] ([Ava]CNT[Trp(7-Me)]K(Ac)CY(Me2NCH2CH2)[2Nal][Thp]ENH[Sar]-NH2; disulfide 2-7; lactam N-11)	9.9	1.9	1.8
CC(=O)N[C@H]1CCCCNC(=O)[C@@H]2CSSC[C@H](NC(=O)[C@H](CCC(N)=O)NC(=O)[C@H](Cc3c[nH]c4ccccc34)NC1=O)C(=O)N[C@@H](Cc1ccc(OCCN)cc1)C(=O)N[C@@H](Cc1ccc3ccccc3c1)C(=O)NC(C)(C)C(=O)N[C@H](C(=O)N[C@@H](C)C(=O)N[C@H](CC(C)C)C(N)=O)CCC(=O)N(C)CCCCC(=O)N2 [compound 19] (Ac-KWQC[AEF][2Nal][Aib]EA[dL]-NH2; linker 1-4-8 via X3)	7.9	0.0	0.0
CC(C)C[C@@H](NC(=O)[C@H](CC(N)=O)NC(=O)[C@@H]1CCC(=O)NCCCCC(=O)N[C@H]2CSSC[C@H](NC(=O)[C@H](CCC(N)=O)NC(=O)[C@H](Cc3c[nH]c4ccccc34)NC(=O)[C@H]([C@@H](C)O)NC(=O)[C@H](CC(N)=O)NC2=O)C(=O)N[C@@H](Cc2ccc(OCCN(C)C)cc2)C(=O)N[C@@H](Cc2ccc3ccccc3c2)C(=O)N[C@@](C)(CC(C)C)C(=O)N1)C(N)=O [compound 10] ([Ava]CNTWQCY(Me2NCH2CH2)[2Nal][αMeL]EN[dL]-NH2; disulfide 2-7; lactam N-11)	6.7	0.1	0.4
CC(=O)N[C@H]1CCCCNC(=O)[C@@H]2CSSC[C@H](NC(=O)[C@H](CCC(N)=O)NC(=O)[C@H](Cc3c[nH]c4ccccc34)NC1=O)C(=O)N[C@@H](Cc1ccc(OCCN)cc1)C(=O)N[C@@H](Cc1ccc3ccccc3c1)C(=O)NC(C)(C)C(=O)N[C@H](C(=O)N[C@@H](CC(N)=O)C(=O)N[C@@H](CC(N)=O)C(N)=O)CCC(=O)N(C)CCCCC(=O)N2 [compound 12] (Ac-KWQC[AEF][2Nal][Aib]ENN-NH2; linker 1-4-8 via X3)	24.5	1.1	3.6
